From patent publication US20240343658A1, “MICRONUTRIENT COMPOSITIONS AND SYSTEMS AND METHODS OF USING SAME” (Winfield Solutions, LLC, priority 2016, published 2024) come the findings set out here.

The structures appear in SMILES notation.

The data set is described as follows: compatibility with pesticides, modified ASTM E1518-05 (2012) tank mixture test. The data set is classed as physicochemical. Conditions: admixture with the zinc-containing adjuvant, after 72 hours. The method, then:
The zinc-containing adjuvant compositions of the present disclosure were tested for compatibility with pesticides using a modified approach from ASTM E1518-05 (2012), Standard Practice for Evaluation of Physical Compatibility of Pesticides in Aqueous Tank Mixtures by the Dynamic Shaker Method, ASTM International, West Conshohocken, P A, 2012. The pesticides tested included: glyphosate including in its various forms including Roundup®) PowerMax®, Durango®, Cornerstone® 5 plus, Touchdown Total®, Enlist Duo™ (containing glyphosate and 2,4-D) and MON 76382; 2,4-D; Sterling® Blue; Basagran®; Enginia™.
Materials and Methods: The apparatuses used in compatibility testing included: 1. a graduated cylinder, 120 mL; 2. transfer pipets; 3. balance, +0.01 g; 4. a sieve, U.S. standard, 50 mesh (300 μm), 3 inches in diameter; and 5. a flashlight. […] Synthetic water was made according to CIPAC handbook F section MT18.
The final disposition of the compatibility test was on or around 100 mL, and the ratios needed to bring an application of 10 gallons per acre to 100 mL per acre were calculated. 70 percent of the water needed for the compatibility test was added to the cylinder at room temperature. The remaining components were added for the jar test according to WALES and DALES unless otherwise specified by the product label. Applications rates were used from the product label. […]

As to `O=C(O)COc1ccc(Cl)cc1Cl` [2,4-D, 2,4-Dichlorophenoxyacetic acid], the compatibility observation entry was “same results as the 24 hour testing”.
